Data published in US8198274B2, “Substituted indolyl and indazolyl derivatives and uses thereof” (Roche Palo Alto LLC, priority 2008, dated 2012).

Key:
[1] = target: T1, human norepinephrine transporter (hNET) (Homo sapiens, UniProt P23975); experiment: Screening for compounds active at human norepinephrine transporter (hNET), scintillation proximity assay, competition with [3H]-Nisoxetine; format: binding; conditions: membranes of HEK-293 cells, SPA
T1 construct: expressed in transfected cells
Protocol: This assay was used to determine the affinity of ligands for the hNET transporter by competition with [^3H]-Nisoxetine. As in the hSERT assay of the above example, receptor-containing membranes were pre-coupled to the SPA beads and the binding of the appropriate radioligand to the transporter was measured. The light emission was proportional to the amount of bound radioligand, with unbound radioligand producing no signal.
HEK-293 cells (Tatsumi et al., Eur. J. Pharmacol. 1997, 30, 249-258) stably expressing recombinant hNET (Clone: HEK-hNET #2) were maintained with media (DMEM hi glucose with 10% FBS, 300 μg/ml G418 and 2 mM L-Glutamine) and incubated at 37° C. with 5% CO2. Cells were released from culture flasks using PBS for 1-2 minutes. […]
Cell membranes were prepared using a membrane preparation buffer of 50 mM TRIS (pH 7.4). […] After a second centrifugation, the pellet was re-homogenized and brought to a final volume determined during the assay. […]
^3[H] […] The mixtures were allowed to stand at room temperature for one hour, and were then counted on a Packard TopCount LCS, a generic SPA counting protocol settings (Energy Range: Low, Efficiency Mode: Normal, Region A: 1.50-35.00, Region B: 1.50-256.00, Count Time (min.): 0.40, Background Subtract: none, Half-Life Correction: no, Quench Indicator: tSIS, Platemap blank subtraction: No, Cross talk reduction: Off). […]

[2] = target: T2, human dopamine transporter (hDAT) (Homo sapiens, UniProt Q01959); experiment: Screening for compounds active at human dopamine transporter (hDAT), scintillation proximity assay, competition with [3H]-Vanoxerine; format: binding; conditions: HEK-293 cells, SPA
T2 construct: expressed in transfected cells
Protocol: This assay was used to determine the affinity of ligands for the dopamine transporter by competition with [^3H]-Vanoxerine.
HEK-293 cells (Tatsumi et al., Eur. J. Pharmacol. 1997, 30, 249-258) stably expressing recombinant hDAT were maintained with media (DMEM hi glucose with 10% FBS, 300 μg/ml G418 and 2 mM L-Glutamine) and incubated at 37° C. with 5% CO2. Cells were plated four hours prior to experiment by placing approximately 30,000 cells per well (in PBS) on white, opaque Cell-Tak coated 96 well plates. Extra buffer was apriated from the cell plates using an ELx405 plate washer.
^3[H] vanoxerine (GBR 12909) radioligand, specific activity approximately 59 Ci/mmol, stock concentration, 400 nM, and 50 mM Tris-HCl, 300 mM NaCl, (pH 7.4) buffers were used for Scintillation Proximity Assay IC50/Ki determination. […]
The % inhibition was calculated for each compound tested [(Compound CPM at maximum concentration-Non-Specific CPM)/Total CPM*100]. […]
[formula] where max=total binding, min=non specific binding, x=concentration (M) of the tested compound and n=Hill slope. The inhibition dissociation constant (Ki) of each compound was determined according to the method of Cheng-Prusoff and then converted into negative logarithm (pKi) of the Ki.

T2 sequence (Q01959 whole entry): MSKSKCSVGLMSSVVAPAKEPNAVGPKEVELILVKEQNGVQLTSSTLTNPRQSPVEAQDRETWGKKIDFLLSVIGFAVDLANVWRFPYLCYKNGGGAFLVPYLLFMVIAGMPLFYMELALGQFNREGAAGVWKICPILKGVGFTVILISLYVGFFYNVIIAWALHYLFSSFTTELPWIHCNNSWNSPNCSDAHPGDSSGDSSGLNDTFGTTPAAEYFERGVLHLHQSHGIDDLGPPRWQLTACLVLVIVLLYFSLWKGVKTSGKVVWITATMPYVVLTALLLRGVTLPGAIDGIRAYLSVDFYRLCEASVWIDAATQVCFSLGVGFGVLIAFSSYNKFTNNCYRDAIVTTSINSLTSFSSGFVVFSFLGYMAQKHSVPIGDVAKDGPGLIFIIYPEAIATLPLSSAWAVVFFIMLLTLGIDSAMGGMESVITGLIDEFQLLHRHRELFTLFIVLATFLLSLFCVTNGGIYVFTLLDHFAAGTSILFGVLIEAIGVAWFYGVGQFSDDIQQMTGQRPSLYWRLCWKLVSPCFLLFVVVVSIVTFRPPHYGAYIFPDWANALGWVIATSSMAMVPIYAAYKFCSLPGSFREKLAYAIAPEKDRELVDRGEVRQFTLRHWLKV
T1 sequence (P23975 whole entry): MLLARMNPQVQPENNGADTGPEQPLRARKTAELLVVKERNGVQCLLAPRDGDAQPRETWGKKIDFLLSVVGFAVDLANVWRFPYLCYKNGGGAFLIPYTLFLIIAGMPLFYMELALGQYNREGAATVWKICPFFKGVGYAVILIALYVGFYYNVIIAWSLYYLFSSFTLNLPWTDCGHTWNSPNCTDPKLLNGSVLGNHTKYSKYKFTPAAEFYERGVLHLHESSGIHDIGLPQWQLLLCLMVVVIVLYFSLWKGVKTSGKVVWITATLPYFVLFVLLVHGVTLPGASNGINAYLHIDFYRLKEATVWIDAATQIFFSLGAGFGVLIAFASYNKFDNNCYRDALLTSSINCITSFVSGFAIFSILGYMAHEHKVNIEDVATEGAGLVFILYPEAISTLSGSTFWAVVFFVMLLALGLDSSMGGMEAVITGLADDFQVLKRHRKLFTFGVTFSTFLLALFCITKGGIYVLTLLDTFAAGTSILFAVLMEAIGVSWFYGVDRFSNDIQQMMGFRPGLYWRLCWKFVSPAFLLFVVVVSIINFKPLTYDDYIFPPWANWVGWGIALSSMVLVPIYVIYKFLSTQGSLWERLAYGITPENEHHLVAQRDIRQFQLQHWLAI

Ki [1]: ~3.98 nM
Ki [2]: ~5.01 nM
Compound: CNCc1ccccc1Cc1ccc2[nH]c(C(N)=O)cc2c1 [Compound 40, 5-(2-Methylaminomethyl-benzyl)-1H-indole-2-carboxylic acid amide]
